How the values were obtained:
Cbl-b [1] = target: T1, Cbl-b (Homo sapiens, UniProt Q13191); experiment: Cbl-b Degradation Method B (Nano-Glo HiBiT lytic detection); type: cell-based; details: Cbl-b-HiBit KI Jurkat Cells, incubated at least 6-24 hours
T1 construct: Cbl-b-HiBit KI Jurkat Cells were purchased from Promega; host or cells: Cbl-b-HiBiT knock-in Jurkat cells
Summary of the method: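 Cbl-b-HiBiT knock-in Jurkat cells (20,000/well) were treated after ~24 h plating with an 11-point 1:3 series for 6-24 h at 37° C. Remaining Cbl-b measured by Nano-Glo HiBiT lytic luminescence. DC50 and Dmax expressed as % of control.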

Cbl-b [2] = target: T1, Cbl-b; experiment: Cbl-b Degradation Method A (FACS, anti-Cbl-b antibody staining); type: cell-based; details: Cbl-b-HiBit KI Jurkat Cells, incubated at least 20 hours
Summary of the method: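 Cbl-b-HiBit KI Jurkat cells treated with compound for at least 20 h at 37 °C, then fixed, permeabilized and stained with anti-Cbl-b antibody plus anti-rabbit AF488 secondary. Cbl-b levels read by FACS; DC50 and Dmax (percent of control) derived.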

T1 sequence (Q13191 whole entry): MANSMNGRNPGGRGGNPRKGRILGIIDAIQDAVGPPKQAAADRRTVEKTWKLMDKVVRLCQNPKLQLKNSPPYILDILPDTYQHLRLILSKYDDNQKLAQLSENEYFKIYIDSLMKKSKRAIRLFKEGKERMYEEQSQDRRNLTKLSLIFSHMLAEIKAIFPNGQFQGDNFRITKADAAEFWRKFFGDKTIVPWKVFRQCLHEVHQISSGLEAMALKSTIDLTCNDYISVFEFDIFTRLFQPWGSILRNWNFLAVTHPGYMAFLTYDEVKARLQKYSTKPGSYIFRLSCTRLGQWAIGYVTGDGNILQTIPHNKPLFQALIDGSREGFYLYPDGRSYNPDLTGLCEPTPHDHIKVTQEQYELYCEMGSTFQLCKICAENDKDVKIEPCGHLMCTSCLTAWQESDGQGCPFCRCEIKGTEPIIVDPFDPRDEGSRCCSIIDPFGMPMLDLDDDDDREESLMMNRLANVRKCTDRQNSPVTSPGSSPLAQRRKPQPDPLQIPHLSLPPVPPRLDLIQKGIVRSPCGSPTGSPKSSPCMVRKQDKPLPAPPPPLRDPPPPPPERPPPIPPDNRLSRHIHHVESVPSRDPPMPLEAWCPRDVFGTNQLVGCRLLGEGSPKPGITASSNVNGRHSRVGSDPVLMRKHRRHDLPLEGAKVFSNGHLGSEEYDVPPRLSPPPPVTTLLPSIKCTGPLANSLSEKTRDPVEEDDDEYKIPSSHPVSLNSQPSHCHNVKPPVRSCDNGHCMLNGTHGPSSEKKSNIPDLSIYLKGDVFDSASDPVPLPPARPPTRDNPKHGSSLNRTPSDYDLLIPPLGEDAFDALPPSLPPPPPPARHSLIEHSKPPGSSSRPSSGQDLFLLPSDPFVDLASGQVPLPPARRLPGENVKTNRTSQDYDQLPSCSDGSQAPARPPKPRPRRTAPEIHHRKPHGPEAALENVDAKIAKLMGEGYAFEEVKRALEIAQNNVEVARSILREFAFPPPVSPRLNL

In the case of `CC(C)n1c(=O)n(C2CCC(=O)NC2=O)c2cccc(N3CCC(O[C@H]4CC[C@H](CN5CC6(CN(Cc7cc8c(c(C(F)(F)F)c7)CN(c7cccc([C@]9(Cc%10nncn%10C)C[C@@H](C#N)C9)c7)C8=O)C6)C5)CC4)CC3)c21` (stereo partly shown) [Example 327, (1r,3r)-3-[(4-methyl-4H-1,2,4-triazol-3-yl)methyl]-3-(3-{1-oxo-6-[(6-{[(1r,4r)-4-({1-[1-(2,6-dioxopiperidin-3-yl)-2-oxo-3-(propan-2-yl)-2,3-dihydro-1H-1,3-benzodiazol-4-yl]piperidin-4-yl}oxy)cyclohexyl]methyl}-2,6-diazaspiro[3.3]heptan-2-yl)methyl]-4-(trifluoromethyl)-2,3-dihydro-1H-isoindol-2-yl}phenyl)cyclobutane-1-carbonitrile], the DC50 (Cbl-b [1]; half maximal degradation, read-out: Cbl-b Degredation Method B IC50) is reported as less than 5 nM, the “Cbl-b Degredation Method B Dmax (%)” value (Cbl-b [1]; maximum degradation observed) is reported as “C (C ≤ 35)” and the DC50 (Cbl-b [2]; half maximal degradation, read-out: Cbl-b Degredation Method A IC50) is reported as 5 to 50 nM. The Dmax (Cbl-b [2]; Jurkat, maximum degradation observed, read-out: Cbl-b Degredation Method A Dmax (%)) was 35 to 70%.

From patent US20260184710A1, “CASITAS B-LINEAGE LYMPHOMA PROTOONCOGENE B (CBL-B) DEGRADING COMPOUNDS AND ASSOCIATED METHODS OF USE” (Arvinas Operations, Inc., priority 2022, published 2026)
